Each block holds one compound with its values, some of them ahead of it.
How the values were obtained:
[1] = biological target: T1, ToCDS (cysteine desulfurase, CDS) (Thermococcus onnurineus, UniProt B6YT87); experiment: X-ray crystallography; type: binding
T1 construct: gene TON_0289; full length, 399 residues, N-terminal 7xHis-TEV tag (cleavage not mentioned), E. coli BL21(DE3), about 44 kDa, homodimer; PLP on Lys216, catalytic Cys356; EC 2.8.1.7; primers encode N-terminus MIPEDV and C-terminus KGLKT
Description: X-ray crystallography on ToCDS (cysteine desulfurase, CDS) | PLP was Schiff-base linked with […] at the active site. | the alanine was tightly bound: the conserved […] side chain had bifurcated hydrogen bonds

[2] = biological target: cysteine desulfurase from Thermococcus onnurineus NA1 (Thermococcus onnurineus NA1); experiment: crystal structure; ToCDS alone (crystal I, NAT, 2.6 Å, space group P212121), a dimer in the asymmetric unit; crystals II-IV soaked or co-crystallised with 5 mM L-cysteine and 1 mM PLP, each with protomers A and B

T1 sequence (B6YT87 entry or part of it): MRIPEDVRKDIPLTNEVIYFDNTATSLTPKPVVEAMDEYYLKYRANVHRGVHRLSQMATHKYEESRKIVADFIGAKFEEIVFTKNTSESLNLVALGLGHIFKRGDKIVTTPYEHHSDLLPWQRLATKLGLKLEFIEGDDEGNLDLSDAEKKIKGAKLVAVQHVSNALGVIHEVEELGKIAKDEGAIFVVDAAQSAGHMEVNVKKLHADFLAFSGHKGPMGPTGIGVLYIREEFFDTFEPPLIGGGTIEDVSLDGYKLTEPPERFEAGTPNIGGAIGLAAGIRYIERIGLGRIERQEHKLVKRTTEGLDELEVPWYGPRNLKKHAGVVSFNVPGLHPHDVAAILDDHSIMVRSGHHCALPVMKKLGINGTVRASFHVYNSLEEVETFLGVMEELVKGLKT

Compound: Cc1ncc(COP(=O)(O)O)c(C=O)c1O [PLP, pyridoxal 5′-phosphate]
X-ray crystallography ([1]; covalent, internal aldimine Schiff base with Lys216, native crystal I, 2.6 Å, pH 8.5): PLP was Schiff-base linked with Lys216 at the active site.

Compound: C[C@H](N)C(=O)O [alanine]
X-ray crystallography ([1]; crystal III 1.5 Å (protomer A: unbonded alanine, internal aldimine; protomer B: gem-diamine) and crystal II 2.3 Å (gem-diamine, covalent to PLP), from L-cysteine and PLP by cocrystallization or soakin): the alanine was tightly bound: the conserved Arg371 side chain had bifurcated hydrogen bonds

stoichiometry N [2]: 2
Compound: cysteine desulfurase from Thermococcus onnurineus NA1 (enzyme)

— PMC5426080, “Catalytic Intermediate Crystal Structures of Cysteine Desulfurase from the Archaeon Thermococcus onnurineus NA1” (Archaea, 2017)
